Reference: the OPERA property sets (Mansouri et al. 2018)
Peptide text beside a SMILES is read from it. * marks the point of attachment. NHtBu = CC(C)(C)N*

| SMILES | logP |
| --- | --- |
| CC(=O)N[C@H](C(=O)N[C@@H](C)C(=O)N[C@H](C(N)=O)C(C)C)C(C)C (Ac-Val-Ala-Val-NH2) | -0.67 |
| O=[N+]([O-])c1cc2ccccc2[n+]([O-])c1 | 0.56 |
| CNC(=O)Oc1ccc(C)c(C)c1 | 2.09 |
| ClC(Cl)(Cl)Cl | 2.83 |
| Oc1cnc2ccccc2c1 | 2.08 |
| CCCCOc1ccc(C(N)=O)cc1 | 2.48 |
| CC(O)CN (configuration not stated) | -0.96 |
| O=C(O)CCn1nnc2ccccc21 | -0.63 |
| Nc1nc(N)nc(-c2ccccc2)n1 | 1.36 |
| CCCCCC=O | 1.78 |
| Cc1cccc2c(C)cccc12 | 4.38 |
| COc1c(O)c(OC)c(OC)c(O)c1OC | 0.39 |
| CC(=O)Nc1cn[nH]c1 | -0.38 |
| COc1ccc(-c2nc3ccncc3n2C)c(OC)c1 | 2.68 |
| CC(=O)c1cccs1 | 1.25 |
| Cc1ccc([N+](=O)[O-])cc1 | 2.37 |
| O=C(c1ccccc1)c1ccccn1 | 1.88 |
| O=C1CCCCCCCN1 | 0.67 |
| Cc1ccc(C)o1 | 2.24 |
| CN(N=O)C(N)=O | -0.03 |
| COCc1ccccc1NC(=O)OCCN1CCCCC1 | 2.2 |
| CN(C)c1ccc(C(=C2C=CC(=[N+](C)C)C=C2)c2ccccc2)cc1.[Cl-] | 0.62 |
| O=Cc1c[nH]c2ccccc12 | 1.68 |

| SMILES | logP |
| --- | --- |
| CCCC(=NOCC)C1C(=O)CC2(CCC(C)C2)OC1=O (configuration not stated) | 3.66 |
| C#CC(C)N(C)C(=O)Nc1ccc(Cl)cc1 (configuration not stated) | 3 |
| CC(=O)OC[C@H]1O[C@H](OC(C)=O)[C@H](OC(C)=O)[C@@H](OC(C)=O)[C@@H]1OC(C)=O | 0.63 |
| N#Cc1c(Cl)cccc1Cl | 2.74 |
| FC(F)Oc1ccccc1 | 2.44 |
| CNc1c(Cl)cccc1Cl | 2.91 |
| N#Cc1cccs1 | 1.27 |
| CC(=O)Oc1ccccc1C(C)C | 2.78 |
| c1cnn(C23CC4CC(CC(C4)C2)C3)c1 | 3.05 |
| COC(C)=O | 0.18 |
| CCc1cccc(OC(=O)NC)c1 | 2.2 |
| CCCOc1cccc(C=C(C(=O)OCC)C(=O)OCC)c1 | 4 |
| CCOP(=O)(OCC)Oc1ccccc1 | 1.64 |
| CCOC(=O)CBr | 1.12 |
| O=c1cncc[nH]1 | -1.49 |
| CC(C(c1ccccc1)c1ccccc1)[N+](=O)[O-] (configuration not stated) | 3.91 |
| CCC(OC(C)=O)C(CC(C)N(C)C)(c1ccccc1)c1ccccc1 (configuration not stated) | 4.27 |
| NNC(=O)c1ccnc(Cl)c1 | 0.11 |
| CC(=O)c1cccc(NC(=O)N(C)C)c1 | 0.95 |
| O=C(NCCN1CCC(O)(c2ccc(Cl)cc2)CC1)c1ccc(F)cc1 | 2.85 |
| Cc1ccc(NC(=O)N(C)C)cc1 | 1.33 |
| O=[N+]([O-])c1ccc(-c2ccccc2)cc1 | 3.82 |
| ClCCCCl | 2 |

| SMILES | logP |
| --- | --- |
| CN(O)C(N)=O | -0.46 |
| NNC(=O)c1ccnc(Br)c1 | 0.25 |
| ICCI | 2.71 |
| CCC(N)Cc1ccccc1 (configuration not stated) | 2.28 |
| O=C(Nc1ccccc1)N(c1ccccc1)c1ccccc1 | 3.28 |
| CC1(c2ccncc2)CCC(=O)NC1=O (configuration not stated) | 0.07 |
| CCOC(=O)C(C(=O)OCC)=C(C(=O)OCC)C(=O)OCC | 2.63 |
| Nc1ncnc2ncn(C(c3ccccc3)c3ccccc3)c12 | 3.19 |
| CCC[C@@H]1C[C@@H](C(=O)N[C@@H]([C@H]2O[C@H](SC)[C@H](O)[C@@H](O)[C@H]2O)[C@@H](C)O)N(C)C1 | 0.2 |
| CN1CCN(C2=Nc3cc(Cl)ccc3Nc3ccccc32)CC1 | 3.23 |
| COC1CC(OC2CCC3(C)C(CCC4C3CC(O)C3(C)C(C5=CC(=O)OC5)CCC43O)C2)OC(C)C1OC1CC(O)C(OC2CC(O)C(OC)C(C)O2)C(C)O1 (configuration not stated) | 2.14 |
| Cc1ccc(NS(=O)(=O)c2ccc(N)cc2)cc1 | 2.11 |
| CN(C)C(N(C)C)=S(I)c1ccc(Br)cc1 (configuration not stated) | 0.06 |
| O=c1cccc[nH]1 | -0.58 |
| N#Cc1ccc(OCC(=O)O)cc1 | 0.93 |
| ClC(Cl)C(Cl)Cl | 2.39 |
| CC(=O)NC(C)C(=O)NC(Cc1c[nH]c2ccccc12)C(=O)NC(C)C(=O)NC(C)(C)C (stereo not drawn) (Ac-Ala-Trp-Ala-NHtBu; configuration not given here) | 1.26 |
| COCC1COC(Cn2cncn2)(c2ccc(Cl)cc2Cl)O1 (configuration not stated) | 2.21 |
| CS(=O)(=O)Oc1ccccc1 | 1.25 |
| COC(=O)c1ccccc1C | 2.75 |
| OCC1OC(n2cnc3c(S)ncnc32)C(O)C1O (configuration not stated) | -0.6 |
| c1ccc2c(c1)nnc1ccccc12 | 2.4 |
| Nc1ccc2ccccc2c1S(=O)(=O)O | -1.16 |

| SMILES | logP |
| --- | --- |
| Oc1c(Br)cc(Br)cc1Br | 4.13 |
| CCn1nnc2ccccc21 | 1.58 |
| CNC(=O)Nc1ccc(OC)c(Cl)c1 | 1.76 |
| Cc1ncc[nH]1 | 0.24 |
| O=c1[nH]c2ccccc2n1C1CCN(CCCC(c2ccc(F)cc2)c2ccc(F)cc2)CC1 | 6.3 |
| OCCCCc1cccnc1 | 0.92 |
| CCCCCOC(=O)c1ccc(S(N)(=O)=O)cc1 | 2.71 |
| CNC(=O)OCc1c2c(n3c1C(OC(C)=O)CC3)C(=O)C(Cl)=C(OC)C2=O (configuration not stated) | 2.08 |
| CCCC(=NOCC)C1C(=O)CC2(CCCCC2)OC1=O (configuration not stated) | 3.62 |
| CC(C)OCCO | 0.05 |
| COc1cc([C@@H]2c3cc4c(cc3C(O[C@@H]3O[C@@H]5COC(c6cccs6)O[C@H]5[C@H](O)[C@H]3O)C3COC(=O)[C@@H]32)OCO4)cc(OC)c1O (some centres not stated) | 1.24 |
| NC1CC1 | 0.07 |
| CC(C)(O)C(C(=O)O)c1ccc(-c2ccccc2)cc1 (configuration not stated) | 3.25 |
| COc1ccc2cccnc2c1 | 2.37 |
| CCOc1c(NS(=O)(=O)c2ccc(N)cc2)ncnc1OC | 1.03 |
| O=C(O)c1ccc(O)cc1O | 1.63 |
| C1=Cc2ccccc2C1 | 2.92 |
| CCOC(=O)C(=Cc1ccc(OC)cc1)C(C)=O | 2.46 |
| NCCCCNC(=O)c1ccccc1 | 0.58 |
| Nc1nc2c(ncn2[C@H]2C[C@H](O)[C@@H](CO)O2)c(=S)[nH]1 | -0.56 |
| COc1cccc(S(C)(=O)=O)c1 | 0.76 |
| OCCCCl | 0.5 |
| O=C(O)COc1cccc(Br)c1 | 2.22 |

| SMILES | logP |
| --- | --- |
| CN(C)CC(F)(F)F | 1.06 |
| CCCCCC(=O)O | 1.92 |
| CCc1ccc(OC(=O)NC)cc1 | 2.23 |
| O=C1C=CC(=O)c2ccccc21 | 1.71 |
| OCCN1CCN(CCCN2c3ccccc3Sc3ccc(Cl)cc32)CC1 | 4.2 |
| OB(O)c1ccccc1 | 1.58 |
| Cc1c(CC(=O)O)sc2ccc(Cl)cc12 | 3.92 |
| CCC(C)C(NC(=O)C(CCCCN)NC(C)=O)C(=O)NC(Cc1ccccc1)C(N)=O (configuration not stated) | 0.65 |
| COC(=O)c1cnc2n(c1=O)C(C(C)C)CCC2 (configuration not stated) | 0.99 |
| CS(=O)(=O)c1ccc(C(=O)O)cc1 | 0.67 |
| O=S(=O)(Oc1ccccc1)c1ccccc1 | 3.06 |
| Cc1ccc(N=C=S)cc1 | 3.92 |
| Nc1cc(N=O)ccc1O | 0.03 |
| O=[N+]([O-])c1cccc(Br)c1 | 2.64 |
| CC(C)(Oc1ccc(Cl)cc1)C(=O)O | 2.57 |
| CC(=O)N[C@@H](CC(C)C)C(=O)N[C@@H](CC(N)=O)C(N)=O | -1.3 |
| CCCCNc1nc(NC(C)C)nc(SC(F)F)n1 | 4.75 |
| Cn1c(CO)cnc1[N+](=O)[O-] | -0.35 |
| Nc1ncc(Cc2ccccc2)c(N)n1 | 1.58 |
| O=C(CCl)NC(CO)C(O)c1ccc([N+](=O)[O-])cc1 (configuration not stated) | 0.59 |
| O=C(O)COc1ccc(Cl)cc1 | 2.25 |
| COC1C(O)C(C)OC(OC2CCC3(C=O)C(CCC4C3CCC3(C)C(C5=CC(=O)OC5)CCC43O)C2)C1O (configuration not stated) | 1.05 |
| CC(C)COC(N)=O | 0.65 |

| SMILES | logP |
| --- | --- |
| CC(C)(C)CO | 1.31 |
| CCC(=O)OC(Cc1ccccc1)(c1ccccc1)C(C)CN(C)C (configuration not stated) | 4.18 |
| CCOC(=O)NC | 0.34 |
| CCCCOc1ccc(C(=O)OCCN(C)C)cc1 | 3.91 |
| CNC(=O)Oc1cccc(OC(C)C)c1 | 1.96 |
| CC(C)N(CCC(C(N)=O)c1ccc(-c2ccccc2)cc1)C(C)C (configuration not stated) | 3.66 |
| CC1=C(N2CC2)C(=O)C(Cl)=C(N2CC2)C1=O | 1.2 |
| CNC(=O)c1ccccc1C(=O)c1ccccc1 | 2.09 |
| CC(=O)NC(C)C(=O)NC(Cc1ccc(O)cc1)C(=O)NC(Cc1ccccc1)C(N)=O (stereo not drawn) (Ac-Ala-Tyr-Phe-NH2; configuration not given here) | 0.26 |
| CCc1cc(NC(C)=O)cc(CC)c1O | 1.87 |
| O=C(O)CSc1c[nH]c2ccccc12 | 1.78 |
| c1ccsc1 | 1.81 |
| O=Cc1ccccc1Cl | 2.33 |
| CC(=O)OC1C(=O)C2(C)C(O)CC3OCC3(OC(C)=O)C2C(OC(=O)c2ccccc2)C(C)(O)C2(C)CC(OC(=O)C(C)O)C(C)=C12 (configuration not stated) | 1.52 |
| CC1=NCCN1 | 0.52 |
| CSCC(=O)C=NO | 1.21 |
| NNc1ccccc1 | 1.25 |
| O=COc1ccccc1 | 1.26 |
| N#Cc1ccc(NC=O)cc1 | 1.08 |
| Nc1ccc(OC(=O)c2ccc(N)cc2O)cc1 | 2.04 |
| COc1ccc(NC(=O)N(C)C)cc1Cl | 1.64 |
| O=C1CN(N=Cc2ccc([N+](=O)[O-])o2)C(=O)N1 | -0.47 |
| O=C(O)c1c(Cl)cccc1Cl | 2.23 |

| SMILES | logP |
| --- | --- |
| CC(C)C(=O)Nc1ccccc1 | 1.95 |
| S=c1[nH]c2ccccc2[nH]1 | 1.66 |
| Cc1[nH]cnc1CSCCNC1=NS(=O)(=O)CCN1 | -0.74 |
| COc1cccc(C)c1 | 2.66 |
| ClC=C(Cl)Cl | 2.42 |
| O=C(O)c1c(O)cccc1O | 2.2 |
| CCCCCCOC(=O)n1cnc(CC(NC(=O)C2CCC(=O)N2)C(=O)N2CCCC2C(N)=O)c1 (configuration not stated) | 0.71 |
| COC(=O)c1ccncc1 | 0.87 |
| Nc1ccccc1C(F)(F)F | 2.41 |
| COCCOC | -0.21 |
| COc1ccc(CN(CCN(C)C)c2ccccn2)cc1 | 3.27 |
| CC(=O)NC1=CC(=O)c2ccccc2C1=O | 1.29 |
| CCCCCCCc1nn[nH]n1 | 2.01 |
| CC(C)(C)NC[C@H](O)COc1nsnc1N1CCOCC1 | 1.83 |
| O=C(O)CCC(=O)c1ccc(-c2ccccc2)cc1 | 3.2 |
| CN(Cc1cnc2nc(N)nc(N)c2n1)c1c(Cl)cc(C(=O)N[C@@H](CCC(=O)O)C(=O)O)cc1Cl | -0.1 |
| COc1nnc(OC)c2ccccc12 | 2.22 |
| COC(=O)Cc1ccsc1 | 1.46 |
| COc1ccc(NC(C)=O)cc1 | 1.03 |
